Each structure is given as a SMILES string.

The target of the first test is LRRK2(G2019S mutation, GST-LRRK2(amino acids 970-2527)) (Homo sapiens (Human), UniProt Q5S007, G2019S). As to the kind of experiment: LRRK2 Km ATP LanthaScreen Assay. It counts as biochemical. As to conditions: Examples N1-N25. A digest of the protocol: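 TR-FRET: GST-LRRK2 970-2527 G2019S (2.5 nM solution) preincubated 30 min with compound (98 μM top, 1:2.15 dilutions), then 800 nM fluorescein-LRRKtide and 184 μM ATP solution added for 60 min at room temperature in Tris pH 8.5 buffer. Stopped with EDTA and Tb anti-phospho-LRRKtide antibody; IC50 is a mean of several tests.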
LRRK2(G2019S mutation, GST-LRRK2(amino acids 970-2527)), sequence (Q5S007 970-2527 G2019S): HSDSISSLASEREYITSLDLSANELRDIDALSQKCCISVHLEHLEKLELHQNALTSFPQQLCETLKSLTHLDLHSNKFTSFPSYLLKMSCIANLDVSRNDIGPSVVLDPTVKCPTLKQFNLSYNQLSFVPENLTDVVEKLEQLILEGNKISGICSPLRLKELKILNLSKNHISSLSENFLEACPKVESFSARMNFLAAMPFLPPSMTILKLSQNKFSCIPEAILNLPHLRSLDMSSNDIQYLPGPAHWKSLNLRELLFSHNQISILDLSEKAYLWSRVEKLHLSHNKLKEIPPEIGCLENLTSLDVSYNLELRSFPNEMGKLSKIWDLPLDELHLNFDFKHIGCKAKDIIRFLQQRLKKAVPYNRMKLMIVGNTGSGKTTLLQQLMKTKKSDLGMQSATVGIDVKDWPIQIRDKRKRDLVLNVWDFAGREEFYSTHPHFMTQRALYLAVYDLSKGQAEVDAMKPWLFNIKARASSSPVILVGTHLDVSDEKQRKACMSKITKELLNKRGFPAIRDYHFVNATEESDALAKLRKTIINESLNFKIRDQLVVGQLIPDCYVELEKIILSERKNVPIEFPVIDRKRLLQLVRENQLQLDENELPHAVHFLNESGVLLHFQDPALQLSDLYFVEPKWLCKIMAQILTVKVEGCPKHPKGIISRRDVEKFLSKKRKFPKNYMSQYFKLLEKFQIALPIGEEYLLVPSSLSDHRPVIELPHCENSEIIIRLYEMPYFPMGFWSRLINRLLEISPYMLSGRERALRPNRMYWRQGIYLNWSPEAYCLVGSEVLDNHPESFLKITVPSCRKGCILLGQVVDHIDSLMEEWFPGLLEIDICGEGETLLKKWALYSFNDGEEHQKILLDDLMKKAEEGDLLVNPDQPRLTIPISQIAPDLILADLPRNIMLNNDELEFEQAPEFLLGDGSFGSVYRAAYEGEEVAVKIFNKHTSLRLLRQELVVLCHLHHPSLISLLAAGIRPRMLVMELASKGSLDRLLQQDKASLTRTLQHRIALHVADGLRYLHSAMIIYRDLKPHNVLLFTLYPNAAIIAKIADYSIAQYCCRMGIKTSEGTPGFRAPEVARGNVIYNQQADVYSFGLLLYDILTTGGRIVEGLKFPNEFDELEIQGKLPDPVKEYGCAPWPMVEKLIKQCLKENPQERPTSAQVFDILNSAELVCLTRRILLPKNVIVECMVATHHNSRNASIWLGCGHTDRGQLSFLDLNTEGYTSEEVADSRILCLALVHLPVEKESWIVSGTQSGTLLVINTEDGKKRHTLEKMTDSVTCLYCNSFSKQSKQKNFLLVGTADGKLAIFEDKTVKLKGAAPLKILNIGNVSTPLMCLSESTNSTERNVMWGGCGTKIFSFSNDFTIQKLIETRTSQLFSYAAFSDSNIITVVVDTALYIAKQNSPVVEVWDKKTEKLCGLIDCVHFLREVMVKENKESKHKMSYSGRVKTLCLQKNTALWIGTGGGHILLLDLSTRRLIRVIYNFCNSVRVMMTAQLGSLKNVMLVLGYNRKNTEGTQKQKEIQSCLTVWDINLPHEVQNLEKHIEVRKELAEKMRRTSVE
On the technique in general: In TR-FRET formats the signal depends on donor and acceptor labels being close together.
The IC50 is the concentration that gives 50% inhibition. A low value points to inhibition by little substance. Turning to `CC(C)Oc1cc2c(-c3cc(N4CCn5ncnc5C4)ncn3)n[nH]c2cc1F` [Example N1], the IC50 is 7.1 nM.

In turn, `COCC(=O)N1CCN(c2cc(-c3n[nH]c4cc(F)c(OC(C)C)cc34)ncn2)CC1` [Example N2] came in with an IC50 of 5.6 nM. The IC50 values of the last two compounds are within 1.5-fold of each other.

With `CC(C)Oc1cc2c(-c3cc(N4CCOC(C(F)(F)F)C4)ncn3)n[nH]c2cc1F` (stereo not drawn) [Example N3], 26.6 nM corresponded to half-maximal inhibition (IC50). Against the preceding compound, the IC50 is about 4.8-fold higher.

For the compound `CC(C)Oc1cc2c(-c3cc(N4CCN(C5CCS(=O)(=O)C5)CC4)ncn3)n[nH]c2cc1F` (stereo not drawn) [Example N4], inhibition was half-maximal at 2.5 nM (IC50).

Turning to `CC(C)Oc1cc2c(-c3cc(N4CCn5nc(C(F)(F)F)nc5C4C)ncn3)n[nH]c2cc1F` (stereo not drawn) [Example N5], inhibition was half-maximal at 176 nM (IC50).

On to `CC(C)Oc1cc2c(-c3cc(N4CC[C@H](CO)C4)ncn3)n[nH]c2cc1F` [Example N6], for which 10.2 nM corresponded to half-maximal inhibition (IC50).

Turning to `CC(C)Oc1cc2c(-c3cc(N4CC[C@@H](CO)C4)ncn3)n[nH]c2cc1F` [Example N7], the IC50 was 2.9 nM. This IC50 is about 3.5-fold lower than that of the compound before.

`CC(C)Oc1cc2c(-c3cc(N4CCC(F)(F)C4)ncn3)n[nH]c2cc1F` [Example N8]: the IC50 was 6.1 nM.

`CC(C)Oc1cc2c(-c3cc(N4CC[S+]([O-])CC4)ncn3)n[nH]c2cc1F` [Example N9] registered a concentration for half-maximal inhibition (IC50) of 6.1 nM.

Compound `CC(C)Oc1cc2c(-c3cc(N4CCc5oncc5C4)ncn3)n[nH]c2cc1F` [Example N10] registered a concentration for half-maximal inhibition (IC50) of 9.8 nM. Compared with the last compound, the IC50 is about 1.6-fold higher.

`CC(C)Oc1cc2c(-c3cc(N4C5CCC4COC5)ncn3)n[nH]c2cc1F` [Example N11] came in with an IC50 of 18.2 nM. Against the preceding compound, the IC50 is about 1.9-fold higher.

`COCC1CN(c2cc(-c3n[nH]c4cc(F)c(OC(C)C)cc34)ncn2)CCO1` (stereo not drawn) [Example N12] gave an IC50 of 2.9 nM.

`CC(C)Oc1cc2c(-c3cc(N4CCC(n5cccn5)C4)ncn3)n[nH]c2cc1F` (stereo not drawn) [Example N13] displayed an IC50 of 6.1 nM.

`Cc1nc2c(o1)CCN(c1cc(-c3n[nH]c4cc(F)c(OC(C)C)cc34)ncn1)C2` [Example N14]: 6.4 nM corresponded to half-maximal inhibition (IC50). This IC50 and that of the compound before are within 1.5-fold of each other.

For the compound `CC(C)Oc1cc2c(-c3cc(N4CCOC(C)(C)C4)ncn3)n[nH]c2cc1F` [Example N15], the IC50 came out at 6.2 nM.

As for `CC(C)Oc1cc2c(-c3cc(N4CCC(F)(C#N)CC4)ncn3)n[nH]c2cc1F` [Example N16], inhibition was half-maximal at 17.7 nM (IC50).

For `CO[C@H]1CN(c2cc(-c3n[nH]c4cc(F)c(OC(C)C)cc34)ncn2)C[C@@H]1O` [Example N17], the IC50 is 7.7 nM.

As to `CC(C)Oc1cc2c(-c3cc(N4C[C@H](O)[C@@H](N(C)C)C4)ncn3)n[nH]c2cc1F` [Example N18], the IC50 was 7.9 nM.

Compound `CC(C)Oc1cc2c(-c3cc(N4CCS(=O)(=O)CC4)ncn3)n[nH]c2cc1F` [Example N19] returned a 50% inhibitory concentration (IC50) of 24 nM.

The compound `CC(C)Oc1cc2c(-c3cc(N4CCC(F)(CO)CC4)ncn3)n[nH]c2cc1F` [Example N20] gave an IC50 of 2.3 nM.

`CCOC(=O)N1CCN(c2cc(-c3n[nH]c4cc(F)c(OC(C)C)cc34)ncn2)CC1` [Example N21] came in with an IC50 of 6.1 nM.

The compound `CC(C)Oc1cc2c(-c3cc(N4CC[C@H](N(C)C)C4)ncn3)n[nH]c2cc1F` [Example N22] showed an IC50 of 7 nM.

`CC(C)Oc1cc2c(-c3cc(N4CCN(CCCO)CC4)ncn3)n[nH]c2cc1F` [Example N23] gave an IC50 of 3.1 nM.

`CC(C)Oc1cc2c(-c3cc(N4[C@H](C)COC[C@H]4C)ncn3)n[nH]c2cc1F` [Example N24] had an IC50 of 62.1 nM.

Turning to `CC(C)Oc1cc2c(-c3cc(N4[C@H](C)COC[C@@H]4C)ncn3)n[nH]c2cc1F` [Example N25], the midpoint of inhibition, the IC50, lay at 5.4 nM.

Staying with this test, now noted: Examples O1-O23.
Regarding `COC[C@H](C)Oc1ccc2[nH]nc(-c3cc(N4CCn5ncnc5C4)ncn3)c2c1` [Example O1], 20.2 nM corresponded to half-maximal inhibition (IC50).

As for `COC[C@H](C)Oc1ccc2[nH]nc(-c3cc(N4CCOC[C@H]4C)ncn3)c2c1` [Example O2], the half-maximal inhibitory concentration (IC50) turned out to be 20.2 nM.

The compound `COC[C@H](C)Oc1ccc2[nH]nc(-c3cc(N4CC[C@@H](CF)C4)ncn3)c2c1` [Example O3] registered an IC50 of 2.7 nM. This IC50 lies about 7.5-fold lower than the previous one.

As for `COC[C@H](C)Oc1ccc2[nH]nc(-c3cc(N4CCCC(F)(F)C4)ncn3)c2c1` [Example O4], the half-maximal inhibitory concentration (IC50) was 2.8 nM.

Take `COC[C@H](C)Oc1ccc2[nH]nc(-c3cc(N4CCOC(C(F)(F)F)C4)ncn3)c2c1` (stereo partly drawn) [Example O5]: half-maximal inhibition (IC50) was put at 8.6 nM. This IC50 lies about 3.1-fold higher than the previous one.

Regarding `COC[C@H](C)Oc1ccc2[nH]nc(-c3cc(N4CC[C@H](CO)C4)ncn3)c2c1` [Example O6], the IC50 is 6 nM.

In the case of `COC[C@H](C)Oc1ccc2[nH]nc(-c3cc(N4CC[C@@H](CO)C4)ncn3)c2c1` [Example O7], the IC50 amounted to 3.6 nM.

Regarding `COC[C@H](C)Oc1ccc2[nH]nc(-c3cc(N4CCC(F)(F)C4)ncn3)c2c1` [Example O8], the IC50 was 12.6 nM. Against the preceding compound, the IC50 is about 3.5-fold higher.

The test is the same for the next values; noted with them: Km ATP (184 μM ATP solution), G2019S LRRK2, mean IC50.
As to `Cn1cc(-c2cc3c(-c4cc(N5CCC(F)(C#N)CC5)ncn4)n[nH]c3cc2F)cn1` [Example L19], the IC50 was determined as 39.4 nM.

`CO[C@@H]1CN(c2cc(-c3n[nH]c4cc(F)c(-c5cnn(C)c5)cc34)ncn2)C[C@H]1O` [Example L20] registered an IC50 of 36.2 nM.

Take `CN(C)[C@@H]1CN(c2cc(-c3n[nH]c4cc(F)c(-c5cnn(C)c5)cc34)ncn2)C[C@H]1O` [Example L21]: the 50% inhibitory concentration (IC50) came out at 67.1 nM.

The compound `Cn1cc(-c2cc3c(-c4cc(N5CCS(=O)(=O)CC5)ncn4)n[nH]c3cc2F)cn1` [Example L22] showed an IC50 of 146 nM.

As to `Cn1cc(-c2cc3c(-c4cc(N5CCC(F)(CO)CC5)ncn4)n[nH]c3cc2F)cn1` [Example L23], the IC50 was 15.3 nM.

In turn, `CN(C)[C@@H]1CCN(c2cc(-c3n[nH]c4cc(F)c(-c5cnn(C)c5)cc34)ncn2)C1` [Example L24] showed an IC50 of 58 nM.

In turn, `Cn1cc(-c2cc3c(-c4cc(N5CCN(CCCO)CC5)ncn4)n[nH]c3cc2F)cn1` [Example L25] registered a 50% inhibitory concentration (IC50) of 12.6 nM.

Compound `Cn1cc(-c2cc3c(-c4cc(N5CCc6nccnc6C5)ncn4)n[nH]c3cc2F)cn1` [Example L26] displayed an IC50 of 11.1 nM. This IC50 and that of the compound before are within 1.5-fold of each other.

As for `CO[C@@H]1CCN(c2cc(-c3n[nH]c4ccc(-c5cnn(C)c5)cc34)ncn2)C1` [Example M1], the IC50 is 4 nM. This IC50 lies about 2.8-fold lower than the previous one.

On to `Cn1cc(-c2ccc3[nH]nc(-c4cc(N5CCCC(F)(F)C5)ncn4)c3c2)cn1` [Example M2], for which the IC50 came to 2.2 nM.

As to `Cn1cc(-c2ccc3[nH]nc(-c4cc(N5CCn6ncnc6C5)ncn4)c3c2)cn1` [Example M3], the IC50 was found to be 8.5 nM.

For `Cn1cc(-c2ccc3[nH]nc(-c4cc(N5CC[C@@H](CF)C5)ncn4)c3c2)cn1` [Example M4], the IC50 was 2.3 nM.

The compound `Cn1cc(-c2ccc3[nH]nc(-c4cc(N5CC[C@H](CO)C5)ncn4)c3c2)cn1` [Example M5] had an IC50 of 2.5 nM.

Regarding `CC(O)C1CCN(c2cc(-c3n[nH]c4ccc(-c5cnn(C)c5)cc34)ncn2)C1` (stereo not drawn) [Example M6], the IC50 stood at 2.3 nM.

The compound `Cn1cc(-c2ccc3[nH]nc(-c4cc(N5CC[C@@H](CO)C5)ncn4)c3c2)cn1` [Example M7] registered an IC50 of 2.9 nM.

For the compound `Cn1cc(-c2ccc3[nH]nc(-c4cc(N5CCCC(C)(O)C5)ncn4)c3c2)cn1` (stereo not drawn) [Example M8], the IC50 amounted to 7.9 nM.

`C[C@@H]1CN(c2cc(-c3n[nH]c4ccc(-c5cnn(C)c5)cc34)ncn2)CCO1` [Example M9] had a 50% inhibitory concentration (IC50) of 1.9 nM.

Compound `CO[C@H]1CCN(c2cc(-c3n[nH]c4ccc(-c5cnn(C)c5)cc34)ncn2)C1` [Example M10] gave an IC50 of 2.6 nM.

For the compound `Cn1cc(-c2ccc3[nH]nc(-c4cc(N5CC[S+]([O-])CC5)ncn4)c3c2)cn1` [Example M11], the half-inhibitory concentration (IC50) came out at 26.8 nM.

`C[C@H]1CN(c2cc(-c3n[nH]c4ccc(-c5cnn(C)c5)cc34)ncn2)CCO1` [Example M12] registered an IC50 of 2.2 nM.

Compound `Cn1cc(-c2ccc3[nH]nc(-c4cc(N5C[C@H](F)[C@@H](F)C5)ncn4)c3c2)cn1` [Example M13] returned an IC50 of 3.8 nM.

In the case of `Cc1nc2c(o1)CCN(c1cc(-c3n[nH]c4ccc(-c5cnn(C)c5)cc34)ncn1)C2` [Example M14], it took 2.8 nM to reach half-maximal inhibition (IC50). The IC50 values of the last two compounds are within 1.5-fold of each other.

For `Cn1cc(-c2ccc3[nH]nc(-c4cc(N5CCN6C(=O)OCC6C5)ncn4)c3c2)cn1` (stereo not drawn) [Example M15], the IC50 was 6.3 nM.

Regarding `Cn1cc(-c2ccc3[nH]nc(-c4cc(N5CCCC6(CCO6)C5)ncn4)c3c2)cn1` (stereo not drawn) [Example M16], inhibition was half-maximal at 10.9 nM (IC50).

`CN(C)[C@H]1CN(c2cc(-c3n[nH]c4ccc(-c5cnn(C)c5)cc34)ncn2)C[C@@H]1O` [Example M17]: it took 13.5 nM to reach half-maximal inhibition (IC50).

In the case of `Cn1cc(-c2ccc3[nH]nc(-c4cc(N5CCS(=O)(=O)CC5)ncn4)c3c2)cn1` [Example M18], the IC50 worked out at 22.4 nM.

The compound `CN(C)[C@H]1CCN(c2cc(-c3n[nH]c4ccc(-c5cnn(C)c5)cc34)ncn2)C1` [Example M19] returned an IC50 of 4.6 nM.

The compound `Cn1cc(-c2ccc3[nH]nc(-c4cc(N5CCOC(C)(C)C5)ncn4)c3c2)cn1` [Example M20] registered an IC50 of 8.9 nM.

As to `Cn1cc(-c2ccc3[nH]nc(-c4cc(N5CCC(F)(F)CC5)ncn4)c3c2)cn1` [Example M21], the IC50 amounted to 4.6 nM.

Turning to `Cn1cc(-c2ccc3[nH]nc(-c4cc(N5CCC(n6cccn6)C5)ncn4)c3c2)cn1` (stereo not drawn) [Example M22], half-maximal inhibition (IC50) required 3.6 nM.

Compound `CO[C@H]1CN(c2cc(-c3n[nH]c4ccc(-c5cnn(C)c5)cc34)ncn2)C[C@@H]1O` [Example M23] came in with an IC50 of 6 nM.

The compound `Cn1cc(-c2ccc3[nH]nc(-c4cc(N5CCC(F)(CO)CC5)ncn4)c3c2)cn1` [Example M24] returned an IC50 of 2.9 nM. Compared with the last compound, the IC50 is about 2.1-fold lower.

Compound `Cn1cc(-c2ccc3[nH]nc(-c4cc(N5CCN(CCCO)CC5)ncn4)c3c2)cn1` [Example M25] showed an IC50 of 3 nM.

On to `Cn1cc(-c2ccc3[nH]nc(-c4cc(N5CCC(F)(F)C5)ncn4)c3c2)cn1` [Example M26], for which inhibition was half-maximal at 3.7 nM (IC50).

For the compound `Cn1cc(-c2ccc3[nH]nc(-c4cc(N5CCC(F)(C#N)CC5)ncn4)c3c2)cn1` [Example M27], the IC50 is 3 nM. This IC50 and that of the compound before are within 1.5-fold of each other.

`Cn1cc(-c2ccc3[nH]nc(-c4cc(N5CCc6nccnc6C5)ncn4)c3c2)cn1` [Example M28] returned an IC50 of 2.7 nM.

(Values after patent US9416126B2, “Compounds inhibiting leucine-rich repeat kinase enzyme activity” (Merck Sharp & Dohme Corp., priority 2013, dated 2016).)
